The text below walks through data of patent US12497376B2, “Compound [2-(dimethylamino)-2-phenylbutyl]-3,4,5-trimethoxybenzoate 4-methyl-2H-chromen-2-on-7-yl sulphate and use thereof” (LTD “VALENTA—INTELLEKT”, priority 2020, dated 2025).

This assay relates to male mice of the C57 BL/6 line. Put plainly: von Frey filament test (mechanical allodynia) in the model of visceral pain induced by TNBS colitis. It is filed as in vivo. Conditions: for Mechanical allodynia intensity, g (mean ± standard error of the mean): oral once daily from day 3 after TNBS, von Frey test on Day 28, placebo 2.0 ± 0.5. As to the method: In the experiments, 13-week old male mice of the C57 BL/6 line were used. Sixty (60) animals were randomly distributed into four (4) groups of equal number (N=15) characterized by the dosage of the administered compound.
The study was conducted for three different doses of the compound of Formula I. A group of mice receiving only the carrier (starch solution) served as the control group (placebo group).
Colitis was induced by introducing 0.1 mL of TNBS (trinitrobenzene sulfonate) (130 μg/mL in 30% EtOH) into the large intestine through a polyethylene catheter introduced by 3 cm into the anus of mice anesthetized with isoflurane. Then, the mice were arranged individually, and changes in the body weight, appearance and behavior were observed daily. A histological study of the mucosa structure, cell infiltrate, intestinal crypt abscesses and goblet cells confirmed significant damage caused by the TNBS introduction on Day 3 and, in a significant degree, on Day 7 [6].
The preparations were introduced orally in three days after the TNBS introduction and then once daily for the whole study period.
To assess pain behavior, the von Frey test with filaments (appearance of mechanical allodynia) on Day 28 after the TNBS introduction.
The animals were put into an acrylic chamber (15×15×15 cm) raised above the ground with a wire mesh on the bottom. Before starting the tests, the animals were left in the chamber for 5-10 minutes for adaptation. Then, the abdominal cavity of the animal was stimulated with von Frey calibrated filaments (or fibers) (BIOSEB, USA). The filaments were a set of 10 standard plastic fibers of increasing diameters. The fiber rigidity, which is expressed as a minimal force required to flex a fiber, was increased in such calibration logarithmically, with absolute values from 0.6 g to 26 g. Sensitivity threshold of each mouse was determined in three repeats (6 touches in total with 10-second interval for each filament; the interval between successive touches with different filaments was 2 minutes). The abdominal surface was poked with a force required to flex the fiber, and the fiber was held in that position for 6-8 seconds. The positive response was recorded, if the animal sharply winced during touching. A sensitivity threshold was determined by a minimal pressure causing the wincing reflex reaction (4 times of 6 touches).
An average score received in a corresponding test and a standard error of the mean for each value were calculated for each study group (n=15).

On to “[2-(dimethylamino)-2-phenylbutyl]-3,4,5-trimethoxybenzoate 4-methyl-2H-chromen-2-on-7-yl sulphate [Compound of Formula I]”, for which the “Mechanical allodynia intensity, g (mean ± standard error of the mean)” value by setting is: (dose 10 mg/day (recalculated for a human), group 2, n=15) 10.0 ± 0.5 g; (dose 300 mg/day (recalculated for a human), group 3, n=15) 21.4 ± 0.9 g; (dose 1,800 mg/day (recalculated for a human), group 4, n=15) 23.1 ± 1.0 g. Besides, the “Indices of mechanical allodynia versus placebo” value (groups receiving the compound (10, 300, 1,800 mg/day), p < 0.05 versus placebo) is recorded as “significantly lower”.
